Molecules are shown by their SMILES. ± gives the expanded uncertainty stated by the source.

Our source for the mass density and refractive index values is the NIST ThermoML archive (doi:10.1021/acs.jced.7b00657).

For data set [1] the following is noted: 298 K; 101.33 kPa; Liquid; Vibrating tube method.
Data set [2] can be described thus: refractive index (Na D-line) (dimensionless). The conditions noted are these: 293 K; 101.33 kPa; Liquid; Standard Abbe refractometry.

What is called mass density is the mass of a sample divided by its volume. The refractive index is a measure of how strongly the sample bends light. `FC(F)(F)C(F)(F)C(F)(F)C(F)(F)C(F)(F)C(F)(F)C(F)(F)C(F)(F)F` [octadecafluorooctane]: in data set [1], the mass density is listed as 1756 ± 1 kg/m3. For the same molecule, the refractive index in data set [2] came out at 1.268 ± 0.001.
